Usually IC50 stands for the concentration that inhibits the measured activity by half.

Results on 15 molecules are retold here after patent publication US20230416232A1, “PYRIMIDINE COMPOUNDS, COMPOSITIONS, AND MEDICINAL APPLICATIONS THEREOF” (Blueprint Medicines Corporation, priority 2020, published 2023).

Structures can show the parent of a compound that is named as a salt.

Format in all cases: cell-based
The target of test [1] is EGFR (A767_dupASV) expressing Ba/F3 stable cell line (Homo sapiens, UniProt P00533, DUP767-769, cells depend on it). In words: Cellular proliferation (Alamar Blue) assay, EGFR (A767_dupASV) Ba/F3. Particulars: 72 hr, read-out: A767 IC50. The method in brief:
(§1)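 Ba/F3 cells (15,000/well, RPMI + 10% FBS) or A431 cells (5000/well, DMEM + 10% FBS) were seeded for 16-18 h at 37 °C, then treated 72 h with compound at a final 10-0.0005 μM (3-fold dilutions). Alamar Blue was added for 3 h before read-out.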
A general note: Alamar Blue is a resazurin reagent that responds to reducing activity.

Test [2] deals with EGFR (H773insNPH) expressing Ba/F3 stable cell line (Homo sapiens, UniProt P00533, DUP771-773, cells depend on it). The test can be described thus: Cellular proliferation (Alamar Blue) assay, EGFR (H773insNPH) Ba/F3. Particulars: 72 hr, read-out: NPH IC50. As to the method:
Cell line details: • 1. EGFR(D770_N771insSVD) expressing Ba/F3 stable cell line • 2. EGFR (A767_dupASV) expressing Ba/F3 stable cell line • 3. A431 cells • 4. EGFR (H773insNPH) expressing Ba/F3 stable cell line • 5. HER2 (A775_G776insYVMA) expressing Ba/F3 stable cell line
• 1. Seed cells at 5000 for A431 and 15,000 cells for Ba/F3 in 100 μL/well in complete media (for A431: DMEM with 10% FBS and for Ba/F3 cells: RPMI with 10% FBS) in 96-well tissue culture plate. Leave outer wells without cells for background measurements. Incubate at 37 degree Celsius in 5% CO2 humidified incubator for 16-18 hours. • 2. Add 0.025 ml of 5X concentration compound dilution or DMSO control. Final compound concentration range is 10-0.0005 μM prepared in 3-fold serial dilutions. Incubate for 72 hr at 37 degree Celsius in 5% CO2 humidified incubator. • 3. Add 0.0125 ml Alamar Blue™ reagent to each well with multi-channel pipette and tap gently on each side of the plate to mix. Incubate for 3 hours at 37 degree Celsius in 5% CO2 humidified incubator. • 4. […] Data analysis was performed using XLfit 5.5.0.5.

The target in test [3] is HER2 (A775_G776insYVMA) expressing Ba/F3 stable cell line (Homo sapiens, UniProt P04626, DUP772-775, cells depend on it). The test can be described thus: Cellular proliferation (Alamar Blue) assay, HER2 (A775_G776insYVMA) Ba/F3. Particulars: HER2 (A775_G776insYVMA) Ba/F3 cells; 72 hr; Alamar Blue; read-out: YVMA IC50. In a few lines:
as §1

The subject of test [4] is A431 cells. The test can be described thus: Cellular proliferation (Alamar Blue) assay, A431 cells. As to conditions: Homo sapiens, A-431, 72 h, A431 cells; 72 hr; Alamar Blue; read-out: A431 IC50. The method in brief: as §1
The target of test [5] is EGFR(D770_N771insSVD) expressing Ba/F3 stable cell line (Homo sapiens, UniProt P00533, DUP768-770, cells depend on it). In words: Cellular proliferation (Alamar Blue) assay, EGFR(D770_N771insSVD) Ba/F3. As to conditions: 72 hr, read-out: D770 IC50. The method in brief: as §1
EGFR(D770_N771insSVD) expressing Ba/F3 stable cell line, sequence (P00533 with tags, fused parts or gaps DUP768-770): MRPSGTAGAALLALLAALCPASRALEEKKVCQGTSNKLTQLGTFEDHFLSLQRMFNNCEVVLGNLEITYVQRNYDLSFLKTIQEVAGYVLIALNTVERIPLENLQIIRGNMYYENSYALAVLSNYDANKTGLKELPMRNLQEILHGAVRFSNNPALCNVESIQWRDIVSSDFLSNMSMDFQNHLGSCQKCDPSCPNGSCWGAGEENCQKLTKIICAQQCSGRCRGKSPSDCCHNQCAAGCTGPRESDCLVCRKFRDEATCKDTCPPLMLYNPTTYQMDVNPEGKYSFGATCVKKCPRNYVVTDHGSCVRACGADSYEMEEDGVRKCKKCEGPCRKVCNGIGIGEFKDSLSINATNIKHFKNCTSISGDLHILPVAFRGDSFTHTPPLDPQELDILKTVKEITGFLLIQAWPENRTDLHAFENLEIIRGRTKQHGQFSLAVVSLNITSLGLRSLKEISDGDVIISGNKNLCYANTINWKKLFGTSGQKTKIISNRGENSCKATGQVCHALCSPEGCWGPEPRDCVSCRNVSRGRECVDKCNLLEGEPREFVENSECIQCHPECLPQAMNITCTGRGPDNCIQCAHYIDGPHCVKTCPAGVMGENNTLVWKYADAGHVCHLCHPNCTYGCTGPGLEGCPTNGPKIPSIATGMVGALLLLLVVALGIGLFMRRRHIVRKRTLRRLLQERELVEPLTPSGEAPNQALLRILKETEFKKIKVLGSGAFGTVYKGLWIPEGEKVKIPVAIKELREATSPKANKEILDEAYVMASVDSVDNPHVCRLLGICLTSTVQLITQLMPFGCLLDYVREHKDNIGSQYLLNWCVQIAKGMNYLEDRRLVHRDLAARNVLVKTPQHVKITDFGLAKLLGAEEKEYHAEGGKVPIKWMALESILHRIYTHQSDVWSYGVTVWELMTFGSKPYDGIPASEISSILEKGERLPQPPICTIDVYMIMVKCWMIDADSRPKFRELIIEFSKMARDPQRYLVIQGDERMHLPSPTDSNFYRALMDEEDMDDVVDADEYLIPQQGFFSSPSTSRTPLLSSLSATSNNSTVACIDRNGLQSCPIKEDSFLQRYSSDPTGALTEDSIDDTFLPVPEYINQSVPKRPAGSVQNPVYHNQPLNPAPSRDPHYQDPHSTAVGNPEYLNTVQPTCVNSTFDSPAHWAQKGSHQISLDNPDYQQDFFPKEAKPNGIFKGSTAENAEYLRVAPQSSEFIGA

EGFR (H773insNPH) expressing Ba/F3 stable cell line, sequence (P00533 with tags, fused parts or gaps DUP771-773): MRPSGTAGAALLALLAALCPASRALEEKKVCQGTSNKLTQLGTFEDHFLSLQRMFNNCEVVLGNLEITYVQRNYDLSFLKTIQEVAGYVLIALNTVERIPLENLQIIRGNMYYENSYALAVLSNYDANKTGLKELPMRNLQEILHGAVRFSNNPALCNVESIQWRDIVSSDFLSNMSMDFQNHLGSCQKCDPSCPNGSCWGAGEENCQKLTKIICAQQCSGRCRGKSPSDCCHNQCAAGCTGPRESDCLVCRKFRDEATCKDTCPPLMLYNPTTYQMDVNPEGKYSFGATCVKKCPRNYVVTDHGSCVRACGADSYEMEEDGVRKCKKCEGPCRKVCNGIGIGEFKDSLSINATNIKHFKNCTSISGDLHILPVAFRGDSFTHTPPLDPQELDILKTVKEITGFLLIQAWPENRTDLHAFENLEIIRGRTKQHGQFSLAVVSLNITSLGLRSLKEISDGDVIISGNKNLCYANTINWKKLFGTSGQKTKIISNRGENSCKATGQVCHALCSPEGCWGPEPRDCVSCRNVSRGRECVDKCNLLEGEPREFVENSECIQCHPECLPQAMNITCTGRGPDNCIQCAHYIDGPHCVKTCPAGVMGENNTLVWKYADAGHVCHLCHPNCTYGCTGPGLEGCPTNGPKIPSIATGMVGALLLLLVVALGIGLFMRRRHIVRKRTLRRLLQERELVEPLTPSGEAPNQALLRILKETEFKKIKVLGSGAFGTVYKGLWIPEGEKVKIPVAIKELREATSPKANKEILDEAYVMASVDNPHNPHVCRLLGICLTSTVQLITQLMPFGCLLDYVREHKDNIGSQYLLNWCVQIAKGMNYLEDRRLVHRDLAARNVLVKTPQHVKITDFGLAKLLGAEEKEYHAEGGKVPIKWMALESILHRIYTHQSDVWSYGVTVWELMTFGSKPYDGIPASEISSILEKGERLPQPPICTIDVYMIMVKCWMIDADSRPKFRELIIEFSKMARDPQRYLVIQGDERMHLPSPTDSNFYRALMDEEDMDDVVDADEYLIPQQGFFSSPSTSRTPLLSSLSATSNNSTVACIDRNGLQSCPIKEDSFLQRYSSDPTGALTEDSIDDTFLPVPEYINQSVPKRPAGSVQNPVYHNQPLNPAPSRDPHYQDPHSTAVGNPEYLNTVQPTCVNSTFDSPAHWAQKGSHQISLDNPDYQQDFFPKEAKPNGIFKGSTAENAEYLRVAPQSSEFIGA
HER2 (A775_G776insYVMA) expressing Ba/F3 stable cell line, sequence (P04626 with tags, fused parts or gaps DUP772-775): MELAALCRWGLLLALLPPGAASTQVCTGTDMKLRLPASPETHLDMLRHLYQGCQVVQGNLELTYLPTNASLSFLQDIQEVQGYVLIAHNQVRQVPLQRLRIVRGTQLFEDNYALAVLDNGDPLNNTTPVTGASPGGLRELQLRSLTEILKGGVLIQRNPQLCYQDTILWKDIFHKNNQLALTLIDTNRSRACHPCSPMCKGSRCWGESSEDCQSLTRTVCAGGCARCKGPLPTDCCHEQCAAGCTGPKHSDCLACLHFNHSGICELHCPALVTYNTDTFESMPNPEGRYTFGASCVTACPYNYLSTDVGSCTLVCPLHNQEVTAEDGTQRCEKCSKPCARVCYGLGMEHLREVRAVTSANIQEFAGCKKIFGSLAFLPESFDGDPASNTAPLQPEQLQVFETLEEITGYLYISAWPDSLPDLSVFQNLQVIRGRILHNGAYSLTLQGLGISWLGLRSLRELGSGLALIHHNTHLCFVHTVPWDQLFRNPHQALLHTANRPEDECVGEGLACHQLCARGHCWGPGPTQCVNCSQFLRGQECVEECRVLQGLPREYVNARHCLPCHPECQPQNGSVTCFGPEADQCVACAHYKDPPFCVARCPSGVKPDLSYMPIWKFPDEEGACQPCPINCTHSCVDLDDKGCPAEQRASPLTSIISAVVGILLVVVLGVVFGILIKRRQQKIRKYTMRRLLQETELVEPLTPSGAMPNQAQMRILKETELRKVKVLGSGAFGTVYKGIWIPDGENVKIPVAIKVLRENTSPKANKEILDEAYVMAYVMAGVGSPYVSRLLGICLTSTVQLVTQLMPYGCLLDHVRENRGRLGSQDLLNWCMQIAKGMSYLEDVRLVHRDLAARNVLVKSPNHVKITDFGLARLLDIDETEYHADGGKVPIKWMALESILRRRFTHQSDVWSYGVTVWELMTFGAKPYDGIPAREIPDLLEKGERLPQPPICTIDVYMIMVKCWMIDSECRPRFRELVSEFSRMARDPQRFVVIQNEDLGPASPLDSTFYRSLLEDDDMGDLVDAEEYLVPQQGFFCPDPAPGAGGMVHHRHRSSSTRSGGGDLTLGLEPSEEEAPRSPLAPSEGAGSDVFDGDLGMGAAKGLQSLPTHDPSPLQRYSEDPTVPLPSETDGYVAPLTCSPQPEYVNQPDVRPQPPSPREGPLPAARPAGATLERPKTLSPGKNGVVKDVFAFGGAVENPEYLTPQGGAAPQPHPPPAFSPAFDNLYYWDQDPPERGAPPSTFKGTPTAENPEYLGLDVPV
EGFR (A767_dupASV) expressing Ba/F3 stable cell line, sequence (P00533 with tags, fused parts or gaps DUP767-769): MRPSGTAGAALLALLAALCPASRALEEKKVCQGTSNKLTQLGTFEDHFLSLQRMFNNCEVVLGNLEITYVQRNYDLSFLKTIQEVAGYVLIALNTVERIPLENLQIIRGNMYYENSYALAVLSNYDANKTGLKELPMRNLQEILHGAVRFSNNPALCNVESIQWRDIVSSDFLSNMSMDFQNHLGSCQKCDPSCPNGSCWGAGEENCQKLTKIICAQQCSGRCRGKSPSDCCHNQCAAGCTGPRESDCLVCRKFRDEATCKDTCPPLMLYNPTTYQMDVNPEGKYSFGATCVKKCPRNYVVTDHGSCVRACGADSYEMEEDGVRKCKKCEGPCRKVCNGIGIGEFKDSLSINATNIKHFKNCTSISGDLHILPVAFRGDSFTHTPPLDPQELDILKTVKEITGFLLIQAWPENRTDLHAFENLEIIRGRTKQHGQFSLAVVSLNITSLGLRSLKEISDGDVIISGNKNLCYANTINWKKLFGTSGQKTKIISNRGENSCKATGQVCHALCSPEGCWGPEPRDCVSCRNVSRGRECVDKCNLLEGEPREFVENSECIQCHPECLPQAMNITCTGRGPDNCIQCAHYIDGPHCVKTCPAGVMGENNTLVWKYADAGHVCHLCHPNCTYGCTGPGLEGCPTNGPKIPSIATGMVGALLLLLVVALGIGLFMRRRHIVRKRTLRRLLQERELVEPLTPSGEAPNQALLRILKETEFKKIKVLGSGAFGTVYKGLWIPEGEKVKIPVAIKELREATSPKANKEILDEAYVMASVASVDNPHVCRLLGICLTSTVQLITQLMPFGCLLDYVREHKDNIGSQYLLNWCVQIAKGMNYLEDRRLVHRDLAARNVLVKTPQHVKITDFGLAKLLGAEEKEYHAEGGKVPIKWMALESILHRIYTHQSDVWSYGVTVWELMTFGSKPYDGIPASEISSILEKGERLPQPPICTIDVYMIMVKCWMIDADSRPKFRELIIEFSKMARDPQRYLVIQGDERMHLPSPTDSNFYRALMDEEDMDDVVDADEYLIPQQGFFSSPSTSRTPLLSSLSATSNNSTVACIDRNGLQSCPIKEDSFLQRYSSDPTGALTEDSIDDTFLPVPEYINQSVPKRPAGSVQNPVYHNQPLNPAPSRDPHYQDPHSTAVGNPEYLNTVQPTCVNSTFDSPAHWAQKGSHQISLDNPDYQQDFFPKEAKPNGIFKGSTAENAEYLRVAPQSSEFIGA

For `C=CC(=O)Nc1ccc(F)c(Nc2nc(Nc3cnn(C)c3)ncc2-c2ccc(OC)c(F)c2)c1` [Compound 1, N-(4-fluoro-3-((5-(3-fluoro-4-methoxyphenyl)-2-((1-methyl-1H-pyrazol-4-yl)amino)pyrimidin-4-yl)amino)phenyl)acrylamide], the GI50 is 36 nM in test [1], 36 nM in test [2], 91 nM in test [3] and 36 nM in test [5]. Further, the IC50 in test [4] was 269 nM.

Take `C=CC(=O)Nc1ccc(F)c(Nc2nc(Nc3cnn(C)c3)ncc2-c2ccc(OC)c(Cl)c2)c1` [Compound 3, N-(3-((5-(3-chloro-4-methoxyphenyl)-2-((1-methyl-1H-pyrazol-4-yl)amino)pyrimidin-4-yl)amino)-4-fluorophenyl)acrylamide]: the GI50 was 91 nM in test [1], 103 nM in test [2], 432 nM in test [3] and 90 nM in test [5]. For the same molecule, in test [4], the IC50 was determined as 2320 nM.

Regarding `C=CC(=O)Nc1ccc(F)c(Nc2nc(Nc3cnn(C)c3)ncc2-c2ccc(F)c(F)c2)c1` [Compound 5, N-(3-((5-(3,4-difluorophenyl)-2-((1-methyl-1H-pyrazol-4-yl)amino)pyrimidin-4-yl)amino)-4-fluorophenyl)acrylamide], the GI50 in test [1] was 39 nM; in test [2] it was 79 nM; in test [3] it was 208 nM; in test [5], 30 nM. In addition, the IC50 in test [4] is 200 nM.

Regarding `C=CC(=O)Nc1ccc(F)c(Nc2nc(Nc3cnn(C)c3)ncc2-c2ccc(F)c(Cl)c2)c1` [Compound 6, N-(3-((5-(3-chloro-4-fluorophenyl)-2-((1-methyl-1H-pyrazol-4-yl)amino)pyrimidin-4-yl)amino)-4-fluorophenyl)acrylamide], the GI50 worked out at 80 nM in test [1], 83 nM in test [2], 187 nM in test [3] and 51 nM in test [5]. For the same molecule, the IC50 in test [4] was 810 nM.

On to `C=CC(=O)Nc1ccc(F)c(Nc2nc(Nc3cnn(C)c3)ncc2-c2ccc(OC)cc2F)c1` [Compound 7, N-(4-fluoro-3-((5-(2-fluoro-4-methoxyphenyl)-2-((1-methyl-1H-pyrazol-4-yl)amino)pyrimidin-4-yl)amino)phenyl)acrylamide], for which the GI50 stood at 97 nM in test [1], 97 nM in test [2], 377 nM in test [3] and 94 nM in test [5]. Besides, the IC50 in test [4] was 229 nM.

Regarding `C=CC(=O)Nc1ccc(F)c(Nc2nc(Nc3cnn(C)c3)ncc2-c2cc(F)ccc2Cl)c1` [Compound 11, N-(3-((5-(2-chloro-5-fluorophenyl)-2-((1-methyl-1H-pyrazol-4-yl)amino)pyrimidin-4-yl)amino)-4-fluorophenyl)acrylamide], the GI50 in test [1] was 262 nM; in test [2] it was 124 nM; in test [3] it was 1070 nM; in test [5], 194 nM. Besides, the IC50 in test [4] came to 1950 nM.

As to `C=CC(=O)Nc1ccc(F)c(Nc2nc(Nc3cnn(C)c3)ncc2-c2ccc(C)c(F)c2)c1` [Compound 13, N-(4-fluoro-3-((5-(3-fluoro-4-methylphenyl)-2-((1-methyl-1H-pyrazol-4-yl)amino)pyrimidin-4-yl)amino)phenyl)acrylamide], the GI50 in test [1] was 42 nM; in test [2] it was 79 nM; in test [3], 114 nM; in test [5], 28 nM. Further, in test [4], the IC50 stood at 147 nM.

For `C=CC(=O)Nc1ccc(F)c(Nc2nc(Nc3cnn(C)c3)ncc2-c2cc(F)cc(C(F)F)c2)c1` [Compound 15, N-(3-((5-(3-(difluoromethyl)-5-fluorophenyl)-2-((1-methyl-1H-pyrazol-4-yl)amino)pyrimidin-4-yl)amino)-4-fluorophenyl)acrylamide], the GI50 in test [1] is 45 nM; in test [2], 102 nM; in test [3], 124 nM; in test [5], 36 nM. The IC50 in test [4] came out at 84 nM.

As to `C=CC(=O)Nc1ccc(F)c(Nc2nc(Nc3cnn(C)c3)ncc2-c2ccc(OC(F)F)c(F)c2)c1` [Compound 16, N-(3-((5-(4-(difluoromethoxy)-3-fluorophenyl)-2-((1-methyl-1H-pyrazol-4-yl)amino)pyrimidin-4-yl)amino)-4-fluorophenyl)acrylamide], the GI50 in test [1] was found to be 9 nM; in test [2], 24 nM; in test [3] it was 43 nM; in test [5] it was 10 nM. The IC50 in test [4] was determined as 460 nM.

With `C=CC(=O)Nc1ccc(F)c(Nc2nc(Nc3cnn(C)c3)ncc2-c2cnc(Cl)c(Cl)c2)c1` [Compound 17, N-(3-((5-(5,6-dichloropyridin-3-yl)-2-((1-methyl-1H-pyrazol-4-yl)amino)pyrimidin-4-yl)amino)-4-fluorophenyl)acrylamide], the GI50 in test [1] worked out at 32 nM; in test [2], 96 nM; in test [3], 42 nM; in test [5], 35 nM. Also, the IC50 in test [4] is 75 nM.

As to `C=CC(=O)Nc1ccc(F)c(Nc2nc(Nc3cnn(C)c3)ncc2-c2ccc(F)c(Br)c2)c1` [Compound 18, N-(3-((5-(3-bromo-4-fluorophenyl)-2-((1-methyl-1H-pyrazol-4-yl)amino)pyrimidin-4-yl)amino)-4-fluorophenyl)acrylamide trifluoroacetate], the GI50 in test [1] was found to be 166 nM; in test [2], 56 nM; in test [3], 220 nM; in test [5], 113 nM. Moreover, in test [4], the IC50 turned out to be 251 nM.

Take `C=CC(=O)Nc1ccc(F)c(Nc2nc(Nc3cnn(C)c3)ncc2-c2ccc(C(F)(F)F)cc2F)c1` [Compound 21, N-(4-fluoro-3-((5-(2-fluoro-4-(trifluoromethyl)phenyl)-2-((1-methyl-1H-pyrazol-4-yl)amino)pyrimidin-4-yl)amino)phenyl)acrylamide]: the GI50 in test [1] was 181 nM; in test [2], 261 nM; in test [3] it was 1030 nM; in test [5], 107 nM. Besides, the IC50 in test [4] was above 10000 nM.

Regarding `C=CC(=O)Nc1ccc(F)c(Nc2nc(Nc3cnn(C)c3)ncc2-c2ccc(C(F)(F)F)c(Cl)c2)c1` [Compound 54, N-(3-((5-(3-chloro-4-(trifluoromethyl)phenyl)-2-((1-methyl-1H-pyrazol-4-yl)amino)pyrimidin-4-yl)amino)-4-fluorophenyl)acrylamide], the GI50 in test [1] was 184 nM; in test [2], 186 nM; in test [3], 260 nM; in test [5], 85 nM.

`C=CC(=O)Nc1cccc(Nc2nc(Nc3cnn(C)c3)ncc2-c2ccc(Cl)c(F)c2)c1` [Compound 68, N-(3-((5-(4-chloro-3-fluorophenyl)-2-((1-methyl-1H-pyrazol-4-yl)amino)pyrimidin-4-yl)amino)phenyl)acrylamide]: the GI50 came to 23 nM in test [1], 21 nM in test [2] and 14 nM in test [5]. Moreover, in test [4], the IC50 was determined as 60 nM.

As for `C=CC(=O)Nc1ccc(F)c(Nc2nc(Nc3cnn(C)c3)ncc2-c2ccc(N3CCCOCC3)c(F)c2)c1` [Compound 84, N-(4-fluoro-3-((5-(3-fluoro-4-(1,4-oxazepan-4-yl)phenyl)-2-((1-methyl-1H-pyrazol-4-yl)amino)pyrimidin-4-yl)amino)phenyl)acrylamide], the GI50 in test [1] came out at 101 nM; in test [2], 92 nM; in test [5], 122 nM. For the same molecule, the IC50 in test [4] amounted to 522 nM.
